Here are results for seven compounds from ChEMBL document CHEMBL2390853, “The products of the reaction between 6-amine-1,3-dimethyl uracil and bis-chalcones induce cytotoxicity with massive vacuolation in HeLa cervical cancer cell line” (Eur J Med Chem, 2013).

The source made the active and inactive calls. The rule behind the calls is not given here.

Data set [1] relates to HeLa. The data set can be described thus: Cytotoxicity against human HeLa cells assessed as cell viability at 50 uM after 3 hrs. It is filed as cell-based.
A further data set concerns C33. Put plainly: Cytotoxicity against human C33 cells assessed as growth inhibition at 0.25 to 100 uM after 48 hrs by MTT assay. It is filed as functional, cell-based.
The subject of data set [2] is HeLa. Put plainly: Cytotoxicity against human HeLa cells assessed as growth inhibition at 0.25 to 100 uM after 48 hrs by MTT assay. It is filed as functional, cell-based. (In general: Tetrazolium assays rely on reduction of a dye to a coloured formazan, in cell work by metabolically active cells.)
Data set [3] deals with K562. Put plainly: Cytotoxicity against human K562 cells assessed as growth inhibition at 0.25 to 100 uM after 48 hrs by MTT assay. It is filed as functional, cell-based.
Data set [4] concerns MCF7. The data set can be described thus: Cytotoxicity against human MCF7 cells assessed as growth inhibition at 0.25 to 100 uM after 48 hrs by MTT assay. Format: functional, cell-based.
The subject of data set [5] is SW480. The data set can be described thus: Cytotoxicity against human SW480 cells assessed as growth inhibition at 0.25 to 100 uM after 48 hrs by MTT assay. Format: functional, cell-based.
The next data set relates to CALO. Put plainly: Cytotoxicity against human CALO cells assessed as growth inhibition at 0.25 to 100 uM after 48 hrs by MTT assay. Format: functional, cell-based.
Data set [6] deals with SW-620. The data set can be described thus: Cytotoxicity against human SW620 cells assessed as growth inhibition at 0.25 to 100 uM after 48 hrs by MTT assay. Format: functional, cell-based.
Data set [7] in a line: Cytotoxicity against human HEK293Q cells assessed as growth inhibition at 0.25 to 100 uM after 48 hrs by MTT assay. It is filed as cell-based.
In data set [8] the test system is HeLa. The data set can be described thus: Induction of cytoplasmic vacuolation in human HeLa cells. Format: functional, cell-based.
Data set [9] has as its system HeLa. Put plainly: Induction of autophagy in human HeLa cells assessed as increase in conversion of LC3B-1 to LC3B-2 at 10 uM after 3 hrs by Western blot analysis. Format: functional, cell-based. (In general: Immunoblotting shows a protein as a band on a membrane.)
Data set [10] has as its system HeLa. The data set can be described thus: Induction of apoptosis in human HeLa cells assessed as DNA fragmentation at 0.25 uM after 48 hrs by TUNEL assay. It is filed as functional, cell-based.
In data set [11] the test system is HeLa. The data set can be described thus: Induction of apoptosis in human HeLa cells assessed as change in p53 expression at 0.25 uM after 24 hrs by Western blot analysis. Format: functional, cell-based.
Data set [12] concerns HeLa. The data set can be described thus: Induction of apoptosis in human HeLa cells assessed as change in Bax expression at 0.25 uM after 24 hrs by Western blot analysis. It is filed as functional, cell-based.
Data set [13] has as its system HeLa. The data set can be described thus: Induction of apoptosis in human HeLa cells assessed as change in procaspase-3 expression at 0.25 uM after 24 hrs by Western blot analysis. Format: functional, cell-based.
Data set [14] has as its system HeLa. The data set can be described thus: Induction of apoptosis in human HeLa cells. Format: functional, cell-based.
The test system of data set [15] is HeLa. Put plainly: Cell cycle arrest in human HeLa cells assessed as accumulation at sub G1 phase at 0.25 uM after 48 to 72 hrs by propidium iodide staining-based FACS flow cytometric analysis. Format: functional. (A flow cytometer gives signals particle by particle.)
The subject of data set [16] is HeLa. Put plainly: Cell cycle arrest in human HeLa cells assessed as accumulation at G2/M phase at 0.25 uM after 12 hrs by propidium iodide staining-based FACS flow cytometric analysis. Format: functional.
Data set [17] deals with HeLa. Put plainly: Cell cycle arrest in human HeLa cells assessed as accumulation at polyploidy region at 0.25 uM after 48 to 72 hrs by propidium iodide staining-based FACS flow cytometric analysis. Format: functional.
Data set [18] relates to HeLa. Put plainly: Induction of apoptosis in human HeLa cells assessed as DNA fragmentation at 13 uM after 48 hrs by TUNEL assay. It is filed as functional, cell-based.
In data set [19] the test system is HeLa. Put plainly: Induction of apoptosis in human HeLa cells assessed as change in p53 expression at 2.5 to 15 uM after 24 hrs by Western blot analysis. It is filed as functional, cell-based.
The test system of data set [20] is HeLa. The data set can be described thus: Induction of apoptosis in human HeLa cells assessed as change in Bax expression at 2.5 to 15 uM after 24 hrs by Western blot analysis. It is filed as functional, cell-based.
The test system of data set [21] is HeLa. Put plainly: Induction of apoptosis in human HeLa cells assessed as change in procaspase-3 expression at 2.5 to 15 uM after 24 hrs by Western blot analysis. It is filed as functional, cell-based.
In data set [22] the test system is HeLa. The data set can be described thus: Induction of apoptosis in human HeLa cells assessed as change in Bcl-2 expression at 2.5 to 15 uM after 24 hrs by Western blot analysis. It is filed as functional, cell-based.
For data set [23], the system named is HeLa. The data set can be described thus: Induction of cytoplasmic vacuolation in human HeLa cells assessed as change in cell morphology at 13 uM after 24 hrs by hematoxylin staining-based light microscopic analysis in presence of cycloheximide. Format: functional.
The test system of data set [24] is HeLa. The data set can be described thus: Induction of necrosis in human HeLa cells assessed as inhibition of cell viability at 13 uM after 24 to 48 hrs by tryphan blue exclusion assay. Format: functional, cell-based.
Data set [25] relates to HeLa. Put plainly: Induction of necrosis in human HeLa cells assessed as inhibition of cell viability at 13 uM after 24 to 48 hrs by MTT assay. It is filed as functional, cell-based.
The subject of data set [26] is HeLa. Put plainly: Induction of necrosis in human HeLa cells at 13 uM after 24 to 48 hrs by LDH release assay. Format: functional, cell-based.
The subject of data set [27] is HeLa. Put plainly: Induction of autophagy in human HeLa cells assessed as large vacuole formation at 13 uM after 24 hrs by inverted microscopic analysis in presence of spautin-1. Format: functional, cell-based.
The test system of data set [28] is HeLa. Put plainly: Induction of autophagy in human HeLa cells assessed as increase in conversion of LC3B-1 to LC3B-2 at 13 uM after 24 hrs by Western blot analysis. It is filed as functional, cell-based.
Data set [29] deals with HeLa. Put plainly: Induction of autophagy in human HeLa cells assessed as increase in conversion of LC3B-1 to LC3B-2 at 13 uM after 24 hrs by Western blot analysis in presence of spautin-1. Format: functional, cell-based.
The test system of data set [30] is HeLa. Put plainly: Cytotoxicity against human HeLa cells assessed as cell viability at 13 uM after 24 hrs by MTT assay in presence of spautin-1. It is filed as functional, cell-based.
Data set [31] relates to HeLa. Put plainly: Cytotoxicity against human HeLa cells assessed as cell viability at 13 uM after 48 hrs by MTT assay in presence of gallic acid. It is filed as functional, cell-based.
Data set [32] can be described thus: Cytotoxicity against human C33 cells assessed as growth inhibition after 48 hrs by MTT assay. It is filed as functional, cell-based. The conditions noted are these: C33, 48 h.
In data set [33] the test system is HeLa. Put plainly: Cytotoxicity against human HeLa cells assessed as growth inhibition after 48 hrs by MTT assay. It is filed as functional, cell-based.
Data set [34] deals with K562. Put plainly: Cytotoxicity against human K562 cells assessed as growth inhibition after 48 hrs by MTT assay. It is filed as functional, cell-based. The settings on record: K562, 48 h.
Data set [35] concerns MCF7. Put plainly: Cytotoxicity against human MCF7 cells assessed as growth inhibition after 48 hrs by MTT assay. It is filed as functional, cell-based. The conditions noted are these: MCF7, 48 h.
In data set [36] the test system is SW480. Put plainly: Cytotoxicity against human SW480 cells assessed as growth inhibition after 48 hrs by MTT assay. It is filed as functional, cell-based. The conditions noted are these: SW480, 48 h.
In data set [37] the test system is SW-620. Put plainly: Cytotoxicity against human SW620 cells assessed as growth inhibition after 48 hrs by MTT assay. Format: functional, cell-based. The settings on record: SW-620, 48 h.
Data set [38] can be described thus: Cytotoxicity against human HEK293Q cells assessed as growth inhibition after 48 hrs by MTT assay. It is filed as cell-based.
For data set [39], the system named is HeLa. The data set can be described thus: Induction of cytoplasmic vacuolation in human HeLa cells at 13 uM after 24 hrs by hematoxylin staining-based light microscopic analysis. It is filed as functional, cell-based.
Data set [40] has as its system HeLa. The data set can be described thus: Induction of cytoplasmic vacuolation in human HeLa cells at 13 uM after 24 hrs by neutral red staining-based light microscopic analysis. It is filed as functional, cell-based.
Data set [41] relates to HeLa. Put plainly: Cell cycle arrest in human HeLa cells assessed as increase in accumulation at G1 phase at 13 uM after 48 to 72 hrs by propidium iodide staining-based FACS flow cytometric analysis. Format: functional.
Data set [42] has as its system HeLa. Put plainly: Cell cycle arrest in human HeLa cells assessed as decrease in reduction in cells at S phase at 13 uM after 72 hrs by propidium iodide staining-based FACS flow cytometric analysis. Format: functional.
Data set [43] relates to HeLa. The data set can be described thus: Cell cycle arrest in human HeLa cells assessed as effect on G2/M phase at 13 uM after 12 to 72 hrs by propidium iodide staining-based FACS flow cytometric analysis. Format: functional.
The subject of data set [44] is HeLa. The data set can be described thus: Cell cycle arrest in human HeLa cells assessed as accumulation at sub G1 phase at 13 uM after 72 hrs by propidium iodide staining-based FACS flow cytometric analysis. It is filed as functional.
A short description of data set [45]: Cytotoxicity against human CALO cells assessed as growth inhibition after 48 hrs by MTT assay. Format: functional, cell-based.

For `C[C@@H]1C[C@@H]([C@H](O)CC2CC(=O)NC(=O)C2)C(=O)[C@@H](C)C1` [CYCLOHEXIMIDE], the Activity entry with HeLa [1] is on record as “Non-toxic”.
Take `Cn1c(=O)c2c(-c3ccsc3)c3c(nc2n(C)c1=O)/C(=C/c1ccsc1)COC3`: the “growth inhibition (GI)” value in the data set with C33, in the data set on HeLa [2], in the data set with K562 [3], in the data set on MCF7 [4], in the data set on SW480 [5] and in the data set with CALO was “inactive” in each case. Also, the “growth inhibition (GI)” value in the data set on SW-620 [6] is “inactive”. The Activity entry in data set [7] is on record as “Non-toxic”. The outcome in the data set on HeLa [8] was inactive.
For `Fc1ccc(CNc2ncnc3ccc(F)cc23)cc1`, in the data set with HeLa [9], the result was inactive.
As to `CC(=O)O[C@H]1C(=O)[C@@]2(C)[C@H]([C@H](OC(=O)c3ccccc3)[C@]3(O)C[C@H](OC(=O)[C@H](O)[C@@H](NC(=O)c4ccccc4)c4ccccc4)C(C)=C1C3(C)C)[C@]1(OC(C)=O)CO[C@@H]1C[C@@H]2O`, the result with HeLa [10], with HeLa [14], in the data set on HeLa [15], in the data set on HeLa [16] and with HeLa [17] was Active. In addition, the outcome in the data set on HeLa [11], in the data set on HeLa [12] and in the data set on HeLa [13] was inactive.
As usually defined, the IC50 is the concentration at which inhibition is half-maximal. For the compound `Cn1cccc1/C=C1\CCCc2c1nc1c(c2-c2cccn2C)c(=O)n(C)c(=O)n1C`, the outcome with HeLa [18], with HeLa [19], in the data set on HeLa [20], in the data set on HeLa [21], in the data set with HeLa [22] and in the data set on HeLa [27] was inactive. For the same compound, the outcome in the data set on HeLa [29], in the data set on HeLa [43] and in the data set with HeLa [44] was inactive. Further, the result in the data set on HeLa [23], in the data set with HeLa [24], in the data set with HeLa [25], in the data set on HeLa [26], in the data set on HeLa [28] and with HeLa [30] was Active. The outcome in the data set with HeLa [31], in the data set on HeLa [39], in the data set with HeLa [40], with HeLa [41] and in the data set on HeLa [42] was Active. For the same compound, the IC50 was 22.2 µM in data set [32]; 13.1 µM with HeLa [33]; 10.4 µM in the data set on K562 [34]; 9.33 µM in the data set with MCF7 [35]; 4.4 µM with SW480 [36]; 8.54 µM in the data set on SW-620 [37]. The results for the IC50 in data set [38] and in data set [45] were 60.1 µM and 13.2 µM, respectively.
As for `Cn1cccc1/C=C1\COCc2c1nc1c(c2-c2cccn2C)c(=O)n(C)c(=O)n1C`, the IC50 in [32] came to 21.6 µM; with HeLa [33], 19.6 µM; in the data set on K562 [34], 37.6 µM; in the data set on MCF7 [35] it was 8.37 µM; with SW480 [36], 28.2 µM; in the data set on SW-620 [37], 14 µM. The IC50 was 67.7 µM in [38] and 43.7 µM in data set [45].
Regarding `Cn1c(=O)c2c(-c3ccsc3)c3c(nc2n(C)c1=O)/C(=C/c1ccsc1)CCC3`, the half-inhibitory concentration (IC50) (in data set [32]; with HeLa [33]; with K562 [34]; in the data set with MCF7 [35]; with SW480 [36]; with SW-620 [37]) was > 100 µM throughout. The concentration for half-maximal inhibition (IC50) in data set [38] and in [45] was > 100 µM each time. The outcome with HeLa [8] was inactive.
